{"source": "ChEMBL document CHEMBL5042474", "about": "“Structure-Guided Discovery of Potent and Selective DYRK1A Inhibitors” (J Med Chem, 2021)", "key": {"[1]": {"target": "T1, Dual specificity tyrosine-phosphorylation-regulated kinase 2 (Homo sapiens, UniProt Q92630)", "T1 sequence (Q92630 whole entry)": "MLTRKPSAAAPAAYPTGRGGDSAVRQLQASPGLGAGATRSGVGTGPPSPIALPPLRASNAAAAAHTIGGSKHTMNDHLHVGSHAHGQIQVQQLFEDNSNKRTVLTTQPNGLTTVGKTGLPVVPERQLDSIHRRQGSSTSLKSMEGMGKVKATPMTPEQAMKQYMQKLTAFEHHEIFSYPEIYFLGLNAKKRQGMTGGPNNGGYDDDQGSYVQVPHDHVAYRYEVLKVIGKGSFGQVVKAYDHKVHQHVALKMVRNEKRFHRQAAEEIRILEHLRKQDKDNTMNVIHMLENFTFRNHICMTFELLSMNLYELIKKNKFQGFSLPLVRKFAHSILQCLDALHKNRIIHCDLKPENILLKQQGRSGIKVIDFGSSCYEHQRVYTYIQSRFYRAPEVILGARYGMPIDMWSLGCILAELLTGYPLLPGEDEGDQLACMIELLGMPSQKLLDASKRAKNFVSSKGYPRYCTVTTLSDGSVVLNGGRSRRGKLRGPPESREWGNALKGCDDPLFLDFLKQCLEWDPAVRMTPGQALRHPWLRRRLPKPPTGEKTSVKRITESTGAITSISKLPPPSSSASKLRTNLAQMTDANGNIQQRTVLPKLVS", "experiment": "Inhibition of DYRK2 (unknown origin) using Ulight-MBP as substrate and ATP as co-substrate incubated for 40 mins and measured after 1 hr by TR-FRET assay"}, "[2]": {"target": "T2, Dual specificity tyrosine-phosphorylation-regulated kinase 2 (Homo sapiens) (UniProt Q92630)", "T2 sequence (whole entry)": "T1 sequence (Q92630 whole entry)", "experiment": "Residual activity of DYRK2 (unknown origin) at 10 nM using Ulight-MBP as substrate and ATP as co-substrate incubated for 40 mins and measured after 1 hr by TR-FRET assay relative to control", "conditions": "time 100.0 min"}, "[3]": {"experiment": "Toxicity in Balb/c nude mouse xenografted with human A2780 cells assessed as decrease in body weight at 37.5 mg/kg, po bid for 14 days relative to control", "assay_type": "organism-based", "design": "scale not given: the % may be the effect or the level left", "conditions": "in vivo, 336 h, time 14 day"}, "[4]": {"target": "Ribosomal protein S6 kinase alpha-4 (Homo sapiens) (UniProt O75676)", "sequence (O75676 whole entry, looked up)": "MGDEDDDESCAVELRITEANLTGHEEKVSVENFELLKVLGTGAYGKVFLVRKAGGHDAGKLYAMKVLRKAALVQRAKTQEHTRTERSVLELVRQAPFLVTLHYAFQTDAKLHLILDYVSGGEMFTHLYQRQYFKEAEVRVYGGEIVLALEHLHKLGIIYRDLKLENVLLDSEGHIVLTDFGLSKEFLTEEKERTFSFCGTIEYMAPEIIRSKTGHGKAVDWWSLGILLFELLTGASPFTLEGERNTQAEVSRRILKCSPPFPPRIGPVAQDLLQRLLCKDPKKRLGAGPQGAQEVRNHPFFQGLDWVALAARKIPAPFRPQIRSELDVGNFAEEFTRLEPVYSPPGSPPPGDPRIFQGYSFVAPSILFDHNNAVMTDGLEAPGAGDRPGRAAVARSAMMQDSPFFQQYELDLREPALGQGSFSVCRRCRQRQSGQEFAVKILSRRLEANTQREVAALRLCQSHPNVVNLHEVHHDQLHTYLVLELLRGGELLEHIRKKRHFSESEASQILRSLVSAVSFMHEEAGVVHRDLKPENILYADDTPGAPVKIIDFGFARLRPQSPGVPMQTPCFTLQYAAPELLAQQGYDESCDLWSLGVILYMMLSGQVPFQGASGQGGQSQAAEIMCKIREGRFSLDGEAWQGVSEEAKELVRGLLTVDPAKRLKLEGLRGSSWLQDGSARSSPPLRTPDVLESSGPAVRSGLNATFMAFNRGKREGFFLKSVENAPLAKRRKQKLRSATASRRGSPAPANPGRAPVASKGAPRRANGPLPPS", "experiment": "Residual activity of RPS6KA4 (unknown origin) at 10 nM using Ulight-MBP as substrate and ATP as co-substrate incubated for 40 mins and measured after 1 hr by TR-FRET assay relative to control", "conditions": "time 100.0 min"}, "[5]": {"experiment": "Toxicity in Balb/c nude mouse xenografted with human A2780 cells assessed as decrease in body weight at 18.75 mg/kg, po bid for 14 days relative to control", "assay_type": "organism-based", "design": "scale not given: the % may be the effect or the level left", "conditions": "in vivo, 336 h, time 14 day"}, "RS4-11 [6]": {"system": "RS4-11", "experiment": "Antitumor activity against human RS4-11 cells xenografted in BALB/c nu/nu mouse assessed as reduction in DYRK1A autophosphorylation of S520 residue at 12.5 mg/kg, po measured after 2 hrs by western blotting analysis relative to control", "assay_type": "functional", "design": "scale not given: the % may be the effect or the level left"}, "A2780 [7]": {"system": "A2780", "experiment": "Antitumor activity against human A2780 cells xenografted in BALB/c nu/nu mouse assessed as reduction in DYRK1A autophosphorylation of S520 residue at 4.687 mg/kg, po measured after 2 hrs by western blotting analysis relative to control", "assay_type": "functional", "design": "scale not given: the % may be the effect or the level left"}, "[8]": {"experiment": "Oral bioavailability in BALB/c nu/nu mouse at 3 mg/kg", "assay_type": "ADME, organism-based", "conditions": "in vivo"}, "[9]": {"target": "Dual specificity protein kinase CLK1 (Homo sapiens) (UniProt P49759)", "sequence (P49759 whole entry, looked up)": "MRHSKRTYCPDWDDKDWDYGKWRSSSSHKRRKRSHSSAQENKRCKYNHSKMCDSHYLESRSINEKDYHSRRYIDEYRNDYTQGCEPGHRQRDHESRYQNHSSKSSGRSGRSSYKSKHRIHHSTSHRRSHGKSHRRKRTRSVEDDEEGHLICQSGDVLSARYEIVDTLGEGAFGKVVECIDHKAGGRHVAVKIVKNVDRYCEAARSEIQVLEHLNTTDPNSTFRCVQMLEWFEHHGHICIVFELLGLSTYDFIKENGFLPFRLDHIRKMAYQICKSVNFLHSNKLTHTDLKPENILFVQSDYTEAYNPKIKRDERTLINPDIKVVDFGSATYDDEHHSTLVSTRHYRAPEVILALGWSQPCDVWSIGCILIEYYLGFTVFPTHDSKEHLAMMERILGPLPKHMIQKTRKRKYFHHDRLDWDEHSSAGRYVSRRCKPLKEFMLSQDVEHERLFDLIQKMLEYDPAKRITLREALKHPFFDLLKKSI", "experiment": "Residual activity of CLK1 (unknown origin) at 10 nM using Ulight-MBP as substrate and ATP as co-substrate incubated for 40 mins and measured after 1 hr by TR-FRET assay relative to control", "conditions": "time 100.0 min"}, "[10]": {"target": "Casein kinase I isoform gamma-1 (Homo sapiens) (UniProt Q9HCP0)", "sequence (Q9HCP0 whole entry, looked up, canonical isoform)": "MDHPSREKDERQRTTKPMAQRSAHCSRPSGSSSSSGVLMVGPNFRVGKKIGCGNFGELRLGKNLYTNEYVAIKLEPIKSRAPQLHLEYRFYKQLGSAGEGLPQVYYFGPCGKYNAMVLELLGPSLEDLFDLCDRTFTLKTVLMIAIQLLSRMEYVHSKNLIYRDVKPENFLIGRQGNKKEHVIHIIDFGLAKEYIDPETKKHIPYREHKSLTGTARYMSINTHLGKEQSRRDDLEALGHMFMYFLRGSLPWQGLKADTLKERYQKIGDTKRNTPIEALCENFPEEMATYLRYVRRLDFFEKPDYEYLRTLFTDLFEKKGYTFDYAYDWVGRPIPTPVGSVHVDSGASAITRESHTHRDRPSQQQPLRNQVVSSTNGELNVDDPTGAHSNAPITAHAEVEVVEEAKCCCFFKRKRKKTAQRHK", "experiment": "Residual activity of CSNK1G1 (unknown origin) at 10 nM using Ulight-MBP as substrate and ATP as co-substrate incubated for 40 mins and measured after 1 hr by TR-FRET assay relative to control", "conditions": "time 100.0 min"}, "RS4-11 [11]": {"system": "RS4-11", "experiment": "Antitumor activity against human RS4-11 cells xenografted in BALB/c nu/nu mouse assessed as reduction in DYRK1A autophosphorylation of S520 residue at 25 mg/kg, po measured after 6 hrs by western blotting analysis relative to control", "assay_type": "functional", "design": "scale not given: the % may be the effect or the level left"}, "A2780 [12]": {"system": "A2780", "experiment": "Antitumor activity against human A2780 cells xenografted in BALB/c nu/nu mouse assessed as reduction in DYRK1A autophosphorylation of S520 residue at 18.75 mg/kg, po measured after 2 hrs by western blotting analysis relative to control", "assay_type": "functional", "design": "scale not given: the % may be the effect or the level left"}, "A2780 [13]": {"system": "A2780", "experiment": "Antitumor activity against human A2780 cells xenografted in Balb/c mouse assessed as tumor volume T/C at 75 mg/kg, po bid for 14 days relative to control", "conditions": "time 14 day"}, "A2780 [14]": {"system": "A2780", "experiment": "Antitumor activity against human A2780 cells xenografted in Balb/c mouse assessed as inhibition of tumor growth at 4.75 mg/kg, po bid for 14 days relative to control", "assay_type": "functional", "conditions": "336 h, time 14 day, read-out: TGI"}, "A2780 [15]": {"system": "A2780", "experiment": "Antitumour activity against human A2780 cells xenografted in Balb/c mouse assessed as tumour volume T/C at 37.5 mg/kg, po bid for 14 days relative to control", "conditions": "time 14 day"}, "C-33-A": {"system": "C-33-A", "experiment": "cells", "conditions": "Homo sapiens, 120 h"}, "RS4-11 [16]": {"system": "RS4-11", "experiment": "Antitumor activity against human RS4-11 cells xenografted in BALB/c nu/nu mouse reduction in DYRK1A autophosphorylation of S520 residue at 6.25 mg/kg, po measured after 6 hrs by western blotting analysis relative to control", "assay_type": "functional", "design": "scale not given: the % may be the effect or the level left"}, "A2780 [17]": {"system": "A2780", "experiment": "Antitumor activity against human A2780 cells xenografted in Balb/c mouse assessed as inhibition of tumor growth at 75 mg/kg, po bid for 14 days relative to control", "assay_type": "functional", "conditions": "336 h, time 14 day, read-out: TGI"}, "A2780 [18]": {"system": "A2780", "experiment": "Antitumor activity against human A2780 cells xenografted in Balb/c mouse assessed as inhibition of tumor growth at 9.5 mg/kg, po bid for 14 days relative to control", "assay_type": "functional", "conditions": "336 h, time 14 day, read-out: TGI"}, "RS4-11 [19]": {"system": "RS4-11", "experiment": "Antitumor activity against human RS4-11 cells xenografted in BALB/c nu/nu mouse assessed as reduction in DYRK1A autophosphorylation of S520 residue at 3.125 mg/kg, po measured after 2 hrs by western blotting analysis relative to control", "assay_type": "functional", "design": "scale not given: the % may be the effect or the level left"}, "A2780 [20]": {"system": "A2780", "experiment": "Antitumor activity against human A2780 cells xenografted in Balb/c mouse assessed as tumor volume T/C at 4.75 mg/kg, po bid for 14 days relative to control", "conditions": "time 14 day"}, "RS4-11 [21]": {"system": "RS4-11", "experiment": "Antitumor activity against human RS4-11 cells xenografted in BALB/c nu/nu mouse assessed as reduction in DYRK1A autophosphorylation of S520 residue at 3.125 mg/kg, po measured after 6 hrs by western blotting analysis relative to control", "assay_type": "functional", "design": "scale not given: the % may be the effect or the level left"}}}
{"smiles": "Cc1nc2ccc(-c3cc(N)nc(N)c3)nc2n1C1CC1", "values": [{"measurement": "IC50", "setting": "[1]", "result": 0.003, "unit": "µM"}, {"measurement": "residual activity", "setting": "[2]", "result": 1.6, "unit": "%"}, {"measurement": "Activity", "setting": "[3]", "result": 9.7, "unit": "%"}, {"measurement": "residual activity", "setting": "[4]", "result": 61, "unit": "%"}, {"measurement": "Activity", "setting": "[5]", "result": 10.7, "unit": "%"}, {"measurement": "Activity", "setting": "RS4-11 [6]", "result": 87, "unit": "%"}, {"measurement": "Activity", "setting": "A2780 [7]", "result": 60, "unit": "%"}, {"measurement": "bioavailability", "setting": "[8]", "result": 39, "unit": "%"}, {"measurement": "residual activity", "setting": "[9]", "result": 48, "unit": "%"}, {"measurement": "residual activity", "setting": "[10]", "result": 69, "unit": "%"}, {"measurement": "Activity", "setting": "RS4-11 [11]", "result": 91, "unit": "%"}, {"measurement": "Activity", "setting": "A2780 [12]", "result": 82, "unit": "%"}, {"measurement": "T/C", "setting": "A2780 [13]", "result": 24, "unit": "%"}, {"measurement": "inhibition in vivo at 4.75 mg/kg", "setting": "A2780 [14]", "result": 28, "unit": "%"}, {"measurement": "T/C", "setting": "A2780 [15]", "result": 52, "unit": "%"}, {"measurement": "IC50", "setting": "C-33-A", "result": 1.02, "unit": "µM"}, {"measurement": "Activity", "setting": "RS4-11 [16]", "result": 25, "unit": "%"}, {"measurement": "inhibition in vivo at 75 mg/kg", "setting": "A2780 [17]", "result": 92, "unit": "%"}, {"measurement": "inhibition in vivo at 9.5 mg/kg", "setting": "A2780 [18]", "result": 28, "unit": "%"}, {"measurement": "Activity", "setting": "RS4-11 [19]", "result": 51, "unit": "%"}, {"measurement": "T/C", "setting": "A2780 [20]", "result": 91, "unit": "%"}, {"measurement": "Activity", "setting": "RS4-11 [21]", "result": 38, "unit": "%"}]}
